{"source": "patent US6737383B1", "about": "“Herbicidal oxadiazolidines” (priority 1999, dated 2004)", "key": {"smallflower flatsedge": {"tested_on": "smallflower flatsedge", "experiment": "Test B flood test smallflower flatsedge", "type": "in vivo, Cyperus difformis", "details": "for Plant response rating, S. Flatsedge (0 to 10 scale, 0 is no effect, 10 is complete control): Rate 62 g/ha, Pre-emergence; for Plant response rating, S. Flatsedge (0 to 10 scale, 0 is no effect, 10 is complete control) / S. Flatsedge plant response rating (0 to 10 scale, 0 is no effect, 10 is complete control): flood test species, visual evaluation after twelve to sixteen days; for S. Flatsedge plant response rating (0 to 10 scale, 0 is no effect, 10 is complete control): Rate 125 g/ha, under heading Pre-emergence", "protocol": "(§1) At the same time, these crop and weed species were also treated with postemergence applications of test chemicals formulated in the same manner. Plants ranged in height from 2 to 18 cm (1- to 4-leaf stage) for postemergence treatments. Plant species in the flood test consisted of rice (Oryza sativa), smallflower flatsedge (Cyperus difformis), duck salad (Heteranthera limosa) and bamyardgrass (Echinochloa crus-galli) grown to the 2-leaf stage for testing. Treated plants and controls were maintained in a greenhouse for twelve to sixteen days, after which all species were compared to controls and visually evaluated. Plant response ratings, summarized in Table B, are based on a scale of 0 to 10 where 0 is no effect and 10 is complete control. A dash (−) response means no test result."}, "duck salad": {"tested_on": "duck salad", "experiment": "Test B flood test duck salad", "type": "in vivo, Heteranthera limosa", "details": "for Plant response rating, Ducksalad (0 to 10 scale, 0 is no effect, 10 is complete control): Rate 62 g/ha, Pre-emergence; for Plant response rating, Ducksalad (0 to 10 scale, 0 is no effect, 10 is complete control) / Ducksalad plant response rating (0 to 10 scale, 0 is no effect, 10 is complete control): flood test species, visual evaluation after twelve to sixteen days; for Ducksalad plant response rating (0 to 10 scale, 0 is no effect, 10 is complete control): Rate 125 g/ha, under heading Pre-emergence", "protocol": "as §1"}, "bamyardgrass": {"tested_on": "bamyardgrass", "experiment": "Test B flood test barnyardgrass", "type": "in vivo, Echinochloa crus-galli", "details": "for Plant response rating, Barnyardgrass (0 to 10 scale, 0 is no effect, 10 is complete control): Rate 62 g/ha, Pre-emergence; for Plant response rating, Barnyardgrass (0 to 10 scale, 0 is no effect, 10 is complete control) / Barnyardgrass plant response rating (0 to 10 scale, 0 is no effect, 10 is complete control): flood test species, visual evaluation after twelve to sixteen days; for Barnyardgrass plant response rating (0 to 10 scale, 0 is no effect, 10 is complete control): Rate 125 g/ha, under heading Pre-emergence", "protocol": "as §1"}, "rice": {"tested_on": "rice", "experiment": "Test B flood test rice", "type": "in vivo, Oryza sativa", "protocol": "as §1"}, "[1]": {"details": "Rate 250 g/ha, Pre-emergence (flood test species), scale 0 to 10, 0 is no effect, 10 is complete control"}, "[2]": {"details": "Rate 500 g/ha, Pre-emergence section of Table B, 0 to 10 scale (0 no effect, 10 complete control)"}}, "data": [{"smiles": "CCCCCCn1c(=O)on(C(=O)N(c2ccc(Cl)cc2)C(C)C)c1=O", "note": "[Compound 529]", "values": [{"measurement": "Plant response rating, S. Flatsedge (0 to 10 scale, 0 is no effect, 10 is complete control)", "setting": "smallflower flatsedge", "result": 0}, {"measurement": "S. Flatsedge plant response rating (0 to 10 scale, 0 is no effect, 10 is complete control)", "setting": "smallflower flatsedge", "result": 0}, {"measurement": "S. Flatsedge plant response rating", "setting": "smallflower flatsedge; [1]", "result": 0}, {"measurement": "S. Flatsedge plant response rating", "setting": "smallflower flatsedge; [2]", "result": 0}, {"measurement": "Plant response rating, Ducksalad (0 to 10 scale, 0 is no effect, 10 is complete control)", "setting": "duck salad", "result": 0}, {"measurement": "Ducksalad plant response rating (0 to 10 scale, 0 is no effect, 10 is complete control)", "setting": "duck salad", "result": 0}, {"measurement": "Ducksalad plant response rating", "setting": "duck salad; [1]", "result": 0}, {"measurement": "Ducksalad plant response rating", "setting": "duck salad; [2]", "result": 0}, {"measurement": "Plant response rating, Barnyardgrass (0 to 10 scale, 0 is no effect, 10 is complete control)", "setting": "bamyardgrass", "result": 0}, {"measurement": "Barnyardgrass plant response rating (0 to 10 scale, 0 is no effect, 10 is complete control)", "setting": "bamyardgrass", "result": 0}, {"measurement": "Barnyardgrass plant response rating", "setting": "bamyardgrass; [1]", "result": 0}, {"measurement": "Barnyardgrass plant response rating", "setting": "bamyardgrass; [2]", "result": 2}]}, {"smiles": "CC(C)N(C(=O)n1oc(=O)n(CC2CC2)c1=O)c1ccc(Cl)cc1", "note": "[Compound 539]", "values": [{"measurement": "Plant response rating, Rice (0 to 10 scale, 0 is no effect, 10 is complete control)", "setting": "rice; Rate 62 g/ha, flood test species, Pre-emergence, visual evaluation after twelve to sixteen days", "result": 0}, {"measurement": "Rice plant response rating (0 to 10 scale, 0 is no effect, 10 is complete control)", "setting": "rice; Rate 125 g/ha, under heading Pre-emergence, flood test species, visual evaluation after twelve to sixteen days", "result": 0}, {"measurement": "Rice plant response rating", "setting": "rice; [1]", "result": 0}, {"measurement": "Rice plant response rating", "setting": "rice; [2]", "result": 0}, {"measurement": "Plant response rating, S. Flatsedge (0 to 10 scale, 0 is no effect, 10 is complete control)", "setting": "smallflower flatsedge", "result": 0}, {"measurement": "S. Flatsedge plant response rating (0 to 10 scale, 0 is no effect, 10 is complete control)", "setting": "smallflower flatsedge", "result": 0}, {"measurement": "S. Flatsedge plant response rating", "setting": "smallflower flatsedge; [1]", "result": 0}, {"measurement": "S. Flatsedge plant response rating", "setting": "smallflower flatsedge; [2]", "result": 0}, {"measurement": "Plant response rating, Ducksalad (0 to 10 scale, 0 is no effect, 10 is complete control)", "setting": "duck salad", "result": 0}, {"measurement": "Ducksalad plant response rating (0 to 10 scale, 0 is no effect, 10 is complete control)", "setting": "duck salad", "result": 0}, {"measurement": "Ducksalad plant response rating", "setting": "duck salad; [1]", "result": 0}, {"measurement": "Ducksalad plant response rating", "setting": "duck salad; [2]", "result": 0}, {"measurement": "Plant response rating, Barnyardgrass (0 to 10 scale, 0 is no effect, 10 is complete control)", "setting": "bamyardgrass", "result": 0}, {"measurement": "Barnyardgrass plant response rating (0 to 10 scale, 0 is no effect, 10 is complete control)", "setting": "bamyardgrass", "result": 0}, {"measurement": "Barnyardgrass plant response rating", "setting": "bamyardgrass; [1]", "result": 0}, {"measurement": "Barnyardgrass plant response rating", "setting": "bamyardgrass; [2]", "result": 0}]}]}
